Assay results taken from patent publication US7320979B2, “N-[(piperazinyl)hetaryl]arylsulfonamide compounds” (Abbott GmbH & Co. KG., priority 2003, dated 2008).

How the values were obtained:
[1] = target: T1, human dopamine D2L receptors (long isoform) (Homo sapiens, UniProt P14416); assay: Dopamine D2L receptor binding, displacement of [125I] iodospiperone; settings: footnote: ratio of the Ki values of the D3 and D2L binding tests
T1 construct: expressed in transfected cells; host or cells: HEK-293
T1 sequence (P14416 whole entry, canonical isoform): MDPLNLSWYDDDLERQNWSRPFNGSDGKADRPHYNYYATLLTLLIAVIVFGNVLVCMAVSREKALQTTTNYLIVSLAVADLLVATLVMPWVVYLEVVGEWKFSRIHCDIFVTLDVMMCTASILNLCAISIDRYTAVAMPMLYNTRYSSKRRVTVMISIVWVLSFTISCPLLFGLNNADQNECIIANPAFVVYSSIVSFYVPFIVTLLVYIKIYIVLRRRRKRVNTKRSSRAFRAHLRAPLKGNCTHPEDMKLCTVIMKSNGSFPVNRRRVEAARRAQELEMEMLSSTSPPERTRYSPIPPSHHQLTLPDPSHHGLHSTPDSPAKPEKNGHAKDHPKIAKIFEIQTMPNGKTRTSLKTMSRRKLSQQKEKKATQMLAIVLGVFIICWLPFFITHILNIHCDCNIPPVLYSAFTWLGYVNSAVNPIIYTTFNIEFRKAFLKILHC
Protocol: (§1) The substance to be tested was either dissolved in methanol/Chremophor® (BASF-AG) or in dimethyl sulfoxide and then diluted with water to the desired concentration.
(§2) Each assay mixture was run in triplicate.
The incubation buffer contained 50 mM tris, 120 mM NaCl, 5 mM KCl, 2 mM CaCl2, 2 mM MgCl2 and 0.1% bovine serum albumin. The buffer was adjusted to pH 7.4 with HCl.
(§3) After having been incubated at 25° C. for 60 minutes, the assay mixtures were filtered through a Whatman GF/B glass fiber filter under vacuum using a cell collecting device. The filters were transferred to scintillation viols using a filter transfer system. After 4 ml of Ultima Gold® (Packard) have been added, the samples were shaken for one hour and the radioactivity was then counted in a Beta-Counter (Packard, Tricarb 2000 or 2200CA). The cpm values were converted into dpm using a standard quench series and the program belonging to the instrument.
(§4) The inhibition curves were analyzed by means of iterative nonlinear regression analysis using the Statistical Analysis System (SAS) which is similar to the “LIGAND” program described by Munson and Rodbard.

[2] = target: T2, human dopamine D3 receptors (Homo sapiens, UniProt P35462); assay: Dopamine D3 receptor binding, displacement of [125I]-iodosulpride; settings: membranes of HEK-293 cells stably expressing human D3 receptors; 0.1 nM [125I]-iodosulpride; 25° C., 60 minutes
T2 construct: expressed in transfected cells; host or cells: HEK-293
T2 sequence (P35462 whole entry): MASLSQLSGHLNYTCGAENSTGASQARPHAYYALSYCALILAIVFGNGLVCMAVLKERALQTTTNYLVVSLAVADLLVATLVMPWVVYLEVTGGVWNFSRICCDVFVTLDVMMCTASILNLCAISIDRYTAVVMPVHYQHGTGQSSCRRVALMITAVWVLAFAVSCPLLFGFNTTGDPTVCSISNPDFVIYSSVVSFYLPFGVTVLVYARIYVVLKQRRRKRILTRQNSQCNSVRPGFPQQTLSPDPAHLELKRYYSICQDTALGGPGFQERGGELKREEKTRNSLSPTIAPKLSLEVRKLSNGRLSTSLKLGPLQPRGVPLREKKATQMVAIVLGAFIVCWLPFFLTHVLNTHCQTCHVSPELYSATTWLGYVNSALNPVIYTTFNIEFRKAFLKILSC
Protocol: as §1, §2
The incubation buffer contained 50 mM tris, 120 mM NaCl, 5 mM KCl, 2 mM CaCl2, 2 mM MgCl2 and 0.1% bovine serum albumin, 10 μM […] and 0.1% ascorbic acid (prepared fresh daily). The buffer was adjusted to pH 7.4 with HCl.
as §3, §4

Molecule | Selectivity vs. D2L [1] | Ki [2] [nM]
CCCN1CCN(c2ccc(NS(=O)(=O)c3ccc(C(C)C)cc3)cn2)CC1C.Cl (racemic) [Example 14, 4-Isopropyl-N-[6-(3-methyl-4-propylpiperazin-1-yl)pyridin-3-yl]benzenesulfonamide hydrochloride] | 81 | 2.5
C=CCN1CCN(c2ccc(NS(=O)(=O)c3ccc(CCCC)cc3)cn2)CC1 [Example 3, N-[6-(4-Allylpiperazin-1-yl)pyridin-3-yl]-4-butylbenzenesulfonamide] | 15 | 5.9
CC(C)c1ccc(S(=O)(=O)Nc2ccc(N3CCN(C)CC3)nc2)cc1 [Example 10, 4-Isopropyl-N-[6-(4-methylpiperazin-1-yl)pyridin-3-yl]benzenesulfonamide] | 93 | 7.5
N-[2-(4-Allylpiperazin-1-yl)pyridin-5-yl]-4-(N-pyrrolidinyl)benzenesulfonamide fumarate [Example 42] | 33 | 5.3
C=CCN1CCN(c2ccc(NS(=O)(=O)c3ccc(C(C)C)cc3)cn2)CC1C.Cl (racemic) [Example 13, N-[6-(4-Allyl-3-methylpiperazin-1-yl)pyridin-3-yl]-4-isopropylbenzenesulfonamide hydrochloride] | 131 | 3.6
CCCN1CCN(c2ccc(NS(=O)(=O)c3ccc(C(C)C)cc3)cn2)C[C@@H]1C [Example 14a, 4-Isopropyl-N-{6-[(3S)-methyl-4-propylpiperazin-1-yl]pyridin-3-yl}benzenesulfonamide] | 184 | 1.5
C=Cc1ccc(S(=O)(=O)Nc2cnc(N3CCN(CCC)[C@@H](C)C3)nc2)cc1.Cl [Example 58, N-[2-((S)-3-Methyl-4-propyl-piperazin-1-yl)-pyrimidin-5-yl]-4-vinylbenzenesulfonamide, hydrochloride] | 254 | 6.2
C=Cc1ccc(S(=O)(=O)Nc2ccc(N3CCN(CCC)[C@@H](C)C3)nc2)cc1.Cl [Example 47, N-[6-((S)-3-methyl-4-propyl-piperazin-1-yl)-pyridin-3-yl]-4-vinylbenzenesulfonamide, hydrochloride] | 118 | 6.1
CCN1CCN(c2ncc(NS(=O)(=O)c3ccc(C(C)C)cc3)cn2)C[C@@H]1C.Cl [Example 54, N-[2-((S)-4-Ethyl-3-methyl-piperazin-1-yl)-pyrimidin-5-yl]-4-isopropylbenzenesulfonamide, hydrochloride] | 84 | 2.3
CCCN1CCN(c2ccc(NS(=O)(=O)c3ccc(Cl)cc3)cn2)CC1 [Example 28, 4-Chloro-N-[6-(4-propylpiperazin-1yl)pyridin-3-yl]-benzenesulfonamide] | 67 | 25.3
CCCN1C(C)CN(c2ncccc2NS(=O)(=O)c2ccc(C(C)C)cc2)CC1C.O=C(O)C(F)(F)F (centres unmarked) [Example 22, 4-Isopropyl-N-[2-(3,5-dimethyl-4-propylpiperazin-1-yl)pyridin-3-yl]benzenesulfonamide trifluoroacetate] | 22 | 21.9
CCN1CCN(c2ncc(NS(=O)(=O)c3ccc(C(C)C)cc3)cn2)CC1.Cl [Example 53, N-[2-(4-Ethyl-piperazin-1-yl)-pyrimidin-5-yl]-4-isopropylbenzenesulfonamide, hydrochloride] | 149 | 8.8
C=CCN1CC2CC1CN2c1ccc(NS(=O)(=O)c2ccc(C(C)C)cc2)cn1.Cl (centres unmarked) [Example 30, N-[6-(5-Allyl-2,5-diazabicyclo[2.2.1]hept-2-yl)pyridin-3-yl]-4-isopropylbenzenesulfonamide hydrochloride] | 17 | 11.1
CCCN1CCN(c2ccc(NS(=O)(=O)c3ccc(C(C)C)cc3)c(OC)n2)C[C@@H]1C.Cl [Example 49, 4-Isopropyl-N-[2-methoxy-6-((S)-3-methyl-4-propyl-piperazin-1-yl)-pyridin-3-yl]-benzenesulfonamide, hydrochloride] | 19 | 0.4
CCCN1CCN(c2ncc(NS(=O)(=O)c3ccc(C(C)C)cc3)cn2)CC1.Cl [Example 17, 4-Isopropyl-N-[2-(4-propylpiperazin-1-yl)pyrimidin-5-yl]benzenesulfonamide hydrochloride] | 148 | 8.2
CC(C)c1ccc(S(=O)(=O)Nc2ccc(N3CCN(CCCF)CC3)nc2)cc1.Cl [Example 32, N-{6-[4-(3-Fluoropropyl)piperazin-1-yl]pyridin-3-yl}-4-isopropylbenzenesulfonamide hydrochloride] | 74 | 17

Molecule | Selectivity vs. D2L [1] | Ki [2] [nM]
C=CCN1CCN(c2ccc(NS(=O)(=O)c3ccc(C=C)cc3)cn2)CC1.Cl [Example 6, N-[6-(4-Allylpiperazin-1-yl)pyridin-3-yl]-4-vinylbenzenesulfonamide hydrochloride] | 169 | 9.7
C=CCN1CCN(c2ccc(NS(=O)(=O)c3ccc(Cl)cc3)cn2)CC1.Cl [Example 35, N-[6-(4-Allylpiperazin-1-yl)pyridin-3-yl]-4-chlorobenzenesulfonamide hydrochloride] | 51 | 26.6
C=CCN1CCN(c2ncc(NS(=O)(=O)c3ccc(C(C)C)cc3)cn2)CC1 [Example 16, N-[2-(4-Allylpiperazin-1-yl)pyrimidin-5-yl]-4-isopropylbenzenesulfonamide] | 131 | 3.8
C=CCN1CCN(c2ccc(NS(=O)(=O)c3ccc(Br)cc3)cn2)CC1.Cl [Example 19, N-[2-(4-Allylpiperazin-1-yl)pyridin-5-yl]-4-bromobenzenesulfonamide hydrochloride] | 91 | 36.9
CCCN1CC2CC1CN2c1ccc(NS(=O)(=O)c2ccc(C(C)C)cc2)cn1.Cl (centres unmarked) [Example 29, 4-Isopropyl-N-[6-(5-propyl-2,5-diazabicyclo[2.2.1]hept-2-yl)pyridin-3-yl]-benzenesulfonamide hydrochloride] | 31 | 16.9
CCCN1CCN(c2ccc(OS(=O)(=O)c3ccc(C(C)C)cc3)cn2)CC1.Cl [Example 60, 4-Isopropyl-benzenesulfonic acid 6-(4-propyl-piperazin-1-yl)-pyridin-3-yl ester, hydrochloride] | 47 | 17.4
CCCN1CCN(c2ncc(NS(=O)(=O)c3ccc(CC)cc3)cn2)C[C@@H]1C.Cl [Example 57, 4-Ethyl-N-[2-((S)-3-methyl-4-propyl-piperazin-1-yl)-pyrimidin-5-yl]-benzenesulfonamide, hydrochloride] | 234 | 7.3
C=CCN1CCN(c2cc(C)c(NS(=O)(=O)c3ccc(C(C)C)cc3)cn2)CC1.Cl [Example 37, N-[6-(4-Allylpiperazin-1-yl)-4-methylpyridin-3-yl]-4-isopropylbenzenesulfonamide hydrochloride] | 86 | 2.7
C=Cc1ccc(S(=O)(=O)Nc2ccc(N3CCN(CCC)CC3)nc2)cc1.Cl [Example 31, N-[6-(4-Propylpiperazin-1-yl)pyridin-3-yl]-4-vinylbenzenesulfonamide hydrochloride] | 96 | 14
C=Cc1ccc(S(=O)(=O)Nc2cnc(N3CCN(CCC)CC3)cc2C)cc1.Cl [Example 39, N-[4-Methyl-6-(4-propylpiperazin-1-yl)pyridin-3-yl]-4-vinylbenzenesulfonamide hydrochloride] | 30 | 34.6
CC(C)c1ccc(S(=O)(=O)Nc2cnc(N3CCNCC3)nc2)cc1 [Example 52, 4-Isopropyl-N-(2-piperazin-1-yl-pyrimidin-5-yl)-benzenesulfonamide] | 63 | 14.2
C=CCN1CCN(c2ccc(NS(=O)(=O)c3ccc(C(C)C)cc3)c(OC)n2)C[C@@H]1C.Cl [Example 48, N-[6-((S)-4-Allyl-3-methyl-piperazin-1-yl)-2-methoxy-pyridin-3-yl]-4-isopropylbenzenesulfonamide, hydrochloride] | 21 | 0.8
C=CCN1CCN(c2ccc(NS(=O)(=O)c3ccc(C(C)C)cc3)cn2)C[C@@H]1CC.Cl [Example 50, N-[6-((S)-4-Allyl-3-ethyl-piperazin-1-yl)-pyridin-3-yl]-4-isopropylbenzenesulfonamide, hydrochloride] | 57 | 9.9
CC(C)c1ccc(S(=O)(=O)Nc2ccc(N3CCNCC3)nc2)cc1 [Example 7, 4-Isopropyl-N-(6-piperazin-1-ylpyridin-3-yl)benzenesulfonamide] | 68 | 11.4
CCCN1CCN(c2ccc(NS(=O)(=O)c3ccc(CC)cc3)cn2)CC1.Cl [Example 34, 4-Ethyl-N-[6-(4-propylpiperazin-1-yl)pyridin-3-yl]-benzenesulfonamide hydrochloride] | 73 | 9.6
